Compound in the assay “Motesanib + Vorinostat”: CC1(C)CNc2cc(NC(=O)c3cccnc3NCc3ccncc3)ccc21 [Motesanib] + O=C(CCCCCCC(=O)Nc1ccccc1)NO [Vorinostat] (partner 1 µM)
Put plainly: relative viability (nuclei count vs DMSO), 5 days (fraction); higher = more cells survive. The procedure, abridged: (§1)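 Relative viability divides the nuclei count in treated wells by that in vehicle wells. Lung cancer cell lines were seeded in 1536-well plates, dosed by pin tool the next day, and fixed and stained after 5 days in one step with final 0.05% Triton X-100, 1% formaldehyde and 1 ug/ml Hoechst. Dosing was a single drug or a fixed anchor-drug dose plus five library-drug doses (not always all listed) in √10 steps, and values are medians of duplicate plates imaged at 4×.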

Compound in the assay “Motesanib + AZD7762”: CC1(C)CNc2cc(NC(=O)c3cccnc3NCc3ccncc3)ccc21 [Motesanib] + NC(=O)Nc1cc(-c2cccc(F)c2)sc1C(=O)N[C@H]1CCCNC1 [AZD7762] (partner 0.2 µM)
The assay is described as above. The gist of the method: as §1

Take 201T: the relative viability with Motesanib + Vorinostat (first compound 0.01 µM) stood at 0.929; with Motesanib + Vorinostat (first compound 0.03162 µM), 0.974; in the assay with Motesanib + Vorinostat (first compound 0.1 µM), 1.08; in the assay with Motesanib + Vorinostat (first compound 0.3162 µM) it was 1.01; with Motesanib + Vorinostat (first compound 1 µM) it was 1.01; with Motesanib + AZD7762 (first compound 0.01 µM), 0.592. Moreover, the relative viability is 0.617 in the assay with Motesanib + AZD7762 (first compound 0.03162 µM), 0.734 with Motesanib + AZD7762 (first compound 0.1 µM), 0.637 with Motesanib + AZD7762 (first compound 0.3162 µM) and 0.672 with Motesanib + AZD7762 (first compound 1 µM).
Take A-427: the relative viability in the assay with Motesanib + Vorinostat (first compound 0.01 µM) was 0.96; with Motesanib + Vorinostat (first compound 0.03162 µM), 0.87; with Motesanib + Vorinostat (first compound 0.1 µM) it was 0.913; with Motesanib + Vorinostat (first compound 0.3162 µM), 0.89; in the assay with Motesanib + Vorinostat (first compound 1 µM), 0.88; with Motesanib + AZD7762 (first compound 0.01 µM), 0.709. The relative viability with Motesanib + AZD7762 (first compound 0.03162 µM) came out at 0.733; in the assay with Motesanib + AZD7762 (first compound 0.1 µM), 0.821; with Motesanib + AZD7762 (first compound 0.3162 µM) it was 0.775; in the assay with Motesanib + AZD7762 (first compound 1 µM), 0.668.
In the case of ABC-1, the relative viability with Motesanib + Vorinostat (first compound 0.01 µM) worked out at 0.786; with Motesanib + Vorinostat (first compound 0.03162 µM), 1.22; with Motesanib + Vorinostat (first compound 0.1 µM), 0.939; with Motesanib + Vorinostat (first compound 0.3162 µM), 1.24; with Motesanib + Vorinostat (first compound 1 µM) it was 1.06; in the assay with Motesanib + AZD7762 (first compound 0.01 µM), 0.811. For the same cell line, the relative viability was 1 in the assay with Motesanib + AZD7762 (first compound 0.03162 µM), 0.762 with Motesanib + AZD7762 (first compound 0.1 µM), 0.904 with Motesanib + AZD7762 (first compound 0.3162 µM) and 0.846 with Motesanib + AZD7762 (first compound 1 µM).
Turning to BEN, the relative viability with Motesanib + Vorinostat (first compound 0.01 µM) was found to be 0.543; in the assay with Motesanib + Vorinostat (first compound 0.03162 µM), 0.56; with Motesanib + Vorinostat (first compound 0.1 µM), 0.637; in the assay with Motesanib + Vorinostat (first compound 0.3162 µM), 0.654; in the assay with Motesanib + Vorinostat (first compound 1 µM), 0.772; in the assay with Motesanib + AZD7762 (first compound 0.01 µM), 0.617. Besides, the relative viability with Motesanib + AZD7762 (first compound 0.03162 µM) came to 0.877; with Motesanib + AZD7762 (first compound 0.1 µM), 0.645; with Motesanib + AZD7762 (first compound 0.3162 µM), 0.576; with Motesanib + AZD7762 (first compound 1 µM), 0.799.
On to CAL-12T, for which the relative viability was 0.797 with Motesanib + Vorinostat (first compound 0.01 µM); 0.847 with Motesanib + Vorinostat (first compound 0.03162 µM); 0.692 in the assay with Motesanib + Vorinostat (first compound 0.1 µM); 0.795 in the assay with Motesanib + Vorinostat (first compound 0.3162 µM); 0.86 with Motesanib + Vorinostat (first compound 1 µM); 0.518 with Motesanib + AZD7762 (first compound 0.01 µM). Besides, the relative viability with Motesanib + AZD7762 (first compound 0.03162 µM) was 0.637; with Motesanib + AZD7762 (first compound 0.1 µM), 0.684; with Motesanib + AZD7762 (first compound 0.3162 µM), 0.69; with Motesanib + AZD7762 (first compound 1 µM), 0.578.
Turning to COR-L23, the relative viability with Motesanib + Vorinostat (first compound 0.01 µM) is 0.45; in the assay with Motesanib + Vorinostat (first compound 0.03162 µM), 0.387; with Motesanib + Vorinostat (first compound 0.1 µM), 0.53; with Motesanib + Vorinostat (first compound 0.3162 µM), 0.44; in the assay with Motesanib + Vorinostat (first compound 1 µM), 0.459.
Regarding COR-L 105, the relative viability in the assay with Motesanib + Vorinostat (first compound 0.01 µM) is 0.861; in the assay with Motesanib + Vorinostat (first compound 0.03162 µM) it was 0.866; in the assay with Motesanib + Vorinostat (first compound 0.1 µM), 0.81; in the assay with Motesanib + Vorinostat (first compound 0.3162 µM), 1.03; with Motesanib + Vorinostat (first compound 1 µM), 0.819.
Turning to ChaGo-K-1, the relative viability came out at 0.745 with Motesanib + Vorinostat (first compound 0.01 µM); 0.764 in the assay with Motesanib + Vorinostat (first compound 0.03162 µM); 0.745 in the assay with Motesanib + Vorinostat (first compound 0.1 µM); 0.818 in the assay with Motesanib + Vorinostat (first compound 0.3162 µM); 0.748 in the assay with Motesanib + Vorinostat (first compound 1 µM); 0.89 with Motesanib + AZD7762 (first compound 0.01 µM). Moreover, the relative viability came to 0.812 with Motesanib + AZD7762 (first compound 0.03162 µM), 0.804 with Motesanib + AZD7762 (first compound 0.1 µM), 0.836 with Motesanib + AZD7762 (first compound 0.3162 µM) and 0.795 with Motesanib + AZD7762 (first compound 1 µM).
Take EKVX: the relative viability in the assay with Motesanib + Vorinostat (first compound 0.01 µM) turned out to be 0.777; with Motesanib + Vorinostat (first compound 0.03162 µM), 0.819; with Motesanib + Vorinostat (first compound 0.1 µM), 0.777; with Motesanib + Vorinostat (first compound 0.3162 µM), 0.895; with Motesanib + Vorinostat (first compound 1 µM), 0.867; in the assay with Motesanib + AZD7762 (first compound 0.01 µM), 0.716. For the same cell line, the relative viability with Motesanib + AZD7762 (first compound 0.03162 µM) is 0.653; with Motesanib + AZD7762 (first compound 0.1 µM) it was 0.684; with Motesanib + AZD7762 (first compound 0.3162 µM), 0.68; with Motesanib + AZD7762 (first compound 1 µM), 0.665.
Consider EMC-BAC-2, for which the relative viability with Motesanib + Vorinostat (first compound 0.01 µM) stood at 0.408; with Motesanib + Vorinostat (first compound 0.03162 µM), 0.475; with Motesanib + Vorinostat (first compound 0.1 µM), 0.426; with Motesanib + Vorinostat (first compound 0.3162 µM), 0.417; with Motesanib + Vorinostat (first compound 1 µM), 0.43; with Motesanib + AZD7762 (first compound 0.01 µM) it was 1.07. In addition, the relative viability worked out at 1.1 in the assay with Motesanib + AZD7762 (first compound 0.03162 µM), 1.09 with Motesanib + AZD7762 (first compound 0.1 µM), 1.2 with Motesanib + AZD7762 (first compound 0.3162 µM) and 1.04 in the assay with Motesanib + AZD7762 (first compound 1 µM).
On to EPLC-272H, for which the relative viability in the assay with Motesanib + Vorinostat (first compound 0.01 µM) is 0.385; in the assay with Motesanib + Vorinostat (first compound 0.03162 µM), 0.518; with Motesanib + Vorinostat (first compound 0.1 µM), 0.448; with Motesanib + Vorinostat (first compound 0.3162 µM) it was 0.479; in the assay with Motesanib + Vorinostat (first compound 1 µM), 0.477; with Motesanib + AZD7762 (first compound 0.01 µM), 0.145. Besides, the relative viability was 0.268 with Motesanib + AZD7762 (first compound 0.03162 µM), 0.151 with Motesanib + AZD7762 (first compound 0.1 µM), 0.21 with Motesanib + AZD7762 (first compound 0.3162 µM) and 0.267 in the assay with Motesanib + AZD7762 (first compound 1 µM).
Turning to H3255, the relative viability with Motesanib + Vorinostat (first compound 0.01 µM) was found to be 0.694; with Motesanib + Vorinostat (first compound 0.03162 µM), 0.88; with Motesanib + Vorinostat (first compound 0.1 µM), 0.661; in the assay with Motesanib + Vorinostat (first compound 0.3162 µM), 0.893; with Motesanib + Vorinostat (first compound 1 µM) it was 0.773; with Motesanib + AZD7762 (first compound 0.01 µM) it was 0.846. In addition, the relative viability with Motesanib + AZD7762 (first compound 0.03162 µM) came to 0.986; with Motesanib + AZD7762 (first compound 0.1 µM), 0.884; in the assay with Motesanib + AZD7762 (first compound 0.3162 µM), 0.816; in the assay with Motesanib + AZD7762 (first compound 1 µM), 0.909.
For the cell line HARA, the relative viability was 0.573 with Motesanib + Vorinostat (first compound 0.01 µM); 0.706 with Motesanib + Vorinostat (first compound 0.03162 µM); 0.538 in the assay with Motesanib + Vorinostat (first compound 0.1 µM); 0.638 in the assay with Motesanib + Vorinostat (first compound 0.3162 µM); 0.565 with Motesanib + Vorinostat (first compound 1 µM); 0.17 with Motesanib + AZD7762 (first compound 0.01 µM). The relative viability in the assay with Motesanib + AZD7762 (first compound 0.03162 µM) worked out at 0.277; with Motesanib + AZD7762 (first compound 0.1 µM) it was 0.48; with Motesanib + AZD7762 (first compound 0.3162 µM), 0.362; in the assay with Motesanib + AZD7762 (first compound 1 µM), 0.207.
Take HCC-15: the relative viability in the assay with Motesanib + Vorinostat (first compound 0.01 µM) stood at 0.883; with Motesanib + Vorinostat (first compound 0.03162 µM), 0.843; with Motesanib + Vorinostat (first compound 0.1 µM), 0.866; with Motesanib + Vorinostat (first compound 0.3162 µM), 0.875; with Motesanib + Vorinostat (first compound 1 µM), 0.877; with Motesanib + AZD7762 (first compound 0.01 µM), 1.34. Moreover, the relative viability came to 1.18 with Motesanib + AZD7762 (first compound 0.03162 µM), 1.06 with Motesanib + AZD7762 (first compound 0.1 µM), 1.36 with Motesanib + AZD7762 (first compound 0.3162 µM) and 1.33 in the assay with Motesanib + AZD7762 (first compound 1 µM).
Turning to HCC-44, the relative viability amounted to 1.14 in the assay with Motesanib + Vorinostat (first compound 0.01 µM); 1.02 in the assay with Motesanib + Vorinostat (first compound 0.03162 µM); 1.17 in the assay with Motesanib + Vorinostat (first compound 0.1 µM); 1.08 with Motesanib + Vorinostat (first compound 0.3162 µM); 1.09 with Motesanib + Vorinostat (first compound 1 µM); 0.93 with Motesanib + AZD7762 (first compound 0.01 µM). In addition, the relative viability with Motesanib + AZD7762 (first compound 0.03162 µM) stood at 1.05; with Motesanib + AZD7762 (first compound 0.1 µM), 1.13; with Motesanib + AZD7762 (first compound 0.3162 µM) it was 1.08; in the assay with Motesanib + AZD7762 (first compound 1 µM), 1.02.
